Data reported in BindingDB's records for doi:10.7270/Q2930RSV (Burnham Center For Chemical Genomics, 2012).

Target: T1, Caspase-3 (Homo sapiens, UniProt P42574)
T1 sequence (P42574 whole entry): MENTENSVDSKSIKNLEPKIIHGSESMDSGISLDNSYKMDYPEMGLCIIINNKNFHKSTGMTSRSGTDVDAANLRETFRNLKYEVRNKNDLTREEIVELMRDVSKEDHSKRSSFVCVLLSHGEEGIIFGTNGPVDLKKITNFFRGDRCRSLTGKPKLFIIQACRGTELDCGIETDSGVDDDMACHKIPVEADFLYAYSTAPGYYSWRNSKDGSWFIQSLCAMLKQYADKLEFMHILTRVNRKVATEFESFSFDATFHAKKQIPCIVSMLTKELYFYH

| Structure (SMILES) | IC50 [µM] |
| --- | --- |
| Cc1[nH]n(-c2ccccc2)c(=O)c1S(=O)(=O)c1ccccc1 [5-methyl-2-phenyl-4-(phenylsulfonyl)-1H-pyrazol-3-one] | > 100 |
| O=C(NNc1cc(N2CCCC2)nc(N2CCCC2)n1)c1ccc([N+](=O)[O-])cc1 [N'-(2,6-dipyrrolidin-1-ylpyrimidin-4-yl)-4-nitrobenzohydrazide] | > 100 |
| CCN(CC)c1ccc(NC2CC(=O)N(CCc3ccc(OC)cc3)C2=O)cc1 (stereo not drawn) [3-[4-(diethylamino)anilino]-1-[2-(4-methoxyphenyl)ethyl]pyrrolidine-2,5-dione] | > 100 |
| CC(NC(=O)COC(=O)c1ccc([N+](=O)[O-])s1)c1ccccc1 (stereo not drawn) [[2-oxo-2-(1-phenylethylamino)ethyl] 5-nitrothiophene-2-carboxylate] | > 100 |
| O=C(CCc1ccccc1)NNc1cc(N2CCCCC2)nc(N2CCCCC2)n1 [N'-[2,6-di(piperidin-1-yl)pyrimidin-4-yl]-3-phenylpropanehydrazide] | > 100 |
| CCCCOc1cc(NCc2ccccc2)c2ncn(C(C)C)c2c1 | > 100 |
| CCC(=O)c1ccc(OCc2cn(CC(=O)c3ccc(O)cc3)nn2)cc1 [1-[4-[[1-[2-(4-hydroxyphenyl)-2-oxoethyl]triazol-4-yl]methoxy]phenyl]propan-1-one] | > 100 |
| NS(=O)(=O)c1ccc(CCNC(=O)COC(=O)c2ccc([N+](=O)[O-])o2)cc1 | > 100 |
| COC(=O)c1ccc(C)cc1C1CN=NC12Cc1cc(C)ccc1C2=O (stereo not drawn) [4-methyl-2-(6-methyl-3-oxo-4'-spiro[1H-indene-2,5'-3,4-dihydropyrazole]yl)benzoic acid methyl ester] | > 100 |
| CC1(C)Cc2c(nn(-c3ccccc3)c(=N)c2C#N)CO1 | 1.09 |
| CC(C)(C)c1ccc(C(=O)NNc2cc(N3CCCCC3)nc(N3CCCCC3)n2)cc1 | > 100 |
| O=[N+]([O-])c1ccc(-n2[n-]c(=[N+]3CCOCC3)cc2O)cc1 [5-(4-morpholinyl)-2-(4-nitrophenyl)-4H-pyrazol-3-one] | > 100 |

Next, values leading:

| IC50 [µM] | Structure (SMILES) |
| --- | --- |
| > 100 | N#CC1(CCCN2CCCCC2)c2ccccc2CCc2ccccc21 [MLS001178552] |
| 50.7 | CN(C)c1cc(N=NCc2ccccc2)nc(N(C)C)n1 [N2,N2,N4,N4-tetramethyl-N6-[(phenylmethylidene)amino]pyrimidine-2,4,6-triamine] |
| > 100 | O=C(COC(=O)c1ccc([N+](=O)[O-])s1)NCCc1ccccc1 [MLS002159124] |
| > 100 | COc1ccc(-c2csc(CCn3[nH]c(C)cc3=O)n2)cc1 [SMR000347900] |
| > 100 | CN(C)c1ccc(NC(=O)c2ccc(Cn3cc([N+](=O)[O-])cn3)cc2)cc1 [MLS000727576] |
| > 100 | COc1ccc(NC(=O)NNc2cc(N3CCOCC3)nc(N3CCOCC3)n2)cc1 [MLS000765810] |
